Measured values taken from patent US12325697B2 (Nimbus Clio, Inc., priority 2021, dated 2025).
pEC50, pIC50: −log10 of the molar value.

Tests used:
[1] = biological target: Recombinant human Cbl-b (aa 36-427) (Homo sapiens (Human), UniProt Q13191); assay: Cbl-b Biochemical Assay (TR-FRET); details: read-out: TR-FRET hCbl-b IC50
In short: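 IC50 from 4-parameter fit of % inhibition (DMSO max, reference-inhibitor min), duplicate ten-point series. Compound preincubated with 6 nM Cbl-b, then Src-Zap70 (1-2.5 nM)/0.5 mM ATP reaction 60 min RT; EDTA quench with labelled UBE2D2-Ub and streptavidin-terbium, 60 min, HTRF at 520 nm.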

[2] = tested on: Phospho-Zap70 (Y-319) in Jurkat wild-type (clone E6-1) cells; assay: Jurkat pZAP70 HTRF Assay; format: cell-based; details: Homo sapiens, anti-CD3 5 μg/ml, 3 hr, read-out: ZAP70 Jurkat EC50
[3] = tested on: Jurkat (clone E6-1) cells, NFAT luciferase reporter; assay: Jurkat Reporter Assay (NFAT Luciferase); format: cell-based; details: Homo sapiens, anti-CD3 stimulation, 6 hr, read-out: Jurkat NFAT EC50

Sequence of Recombinant human Cbl-b (aa 36-427) (Q13191 36-427): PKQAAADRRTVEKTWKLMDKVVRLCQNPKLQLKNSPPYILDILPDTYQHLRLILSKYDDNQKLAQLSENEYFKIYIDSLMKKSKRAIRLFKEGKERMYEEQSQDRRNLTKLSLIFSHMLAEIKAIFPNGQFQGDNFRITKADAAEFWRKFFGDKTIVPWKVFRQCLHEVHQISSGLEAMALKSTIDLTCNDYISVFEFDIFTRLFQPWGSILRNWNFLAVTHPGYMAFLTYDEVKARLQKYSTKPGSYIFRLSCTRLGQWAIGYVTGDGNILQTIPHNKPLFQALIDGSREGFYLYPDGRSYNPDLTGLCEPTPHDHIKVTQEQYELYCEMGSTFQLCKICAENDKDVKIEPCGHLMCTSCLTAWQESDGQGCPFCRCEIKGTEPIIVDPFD

Structure (SMILES) | pIC50 [1] | pEC50 [2] | pEC50 [3]
Cn1cnnc1-c1cc(F)ccc1-c1cc(C2CC2)nc(N2Cc3ccc(CNCC4CCCC4)cc3C2=O)c1 [AHH-3, 6-{[(Cyclopentylmethyl)amino]methyl}-2-{6-cyclopropyl-4-[4-fluoro-2-(4-methyl-1,2,4-triazol-3-yl)phenyl]pyridin-2-yl}-3H-isoindol-1-one] | ≥ 6.70 | > 6.70 | > 6.70
CCNc1cc(-c2ccc(C#N)cc2-c2nncn2C)cc(N2Cc3c(cc(CN[C@@H]4CCC[C@@H]4F)cc3C(F)(F)F)C2=O)n1 [AET-6, 4-[2-(Ethylamino)-6-[6-({[(1R,2S)-2-fluorocyclopentyl]amino}methyl)-1-oxo-4-(trifluoromethyl)-3H-isoindol-2-yl]pyridin-4-yl]-3-(4-methyl-1,2,4-triazol-3-yl) benzonitrile] | ≥ 6.70 | > 6.70 | > 6.70
Cn1cnnc1-c1cnn(C)c1-c1cc(C2CC2)nc(N2Cc3c(cc(COCC4(O)CCC4)cc3C(F)(F)F)C2=O)c1 [AFV-3, 2-{6-Cyclopropyl-4-[2-methyl-4-(4-methyl-1,2,4-triazol-3-yl)pyrazol-3-yl]pyridin-2-yl}-6-{[(1-hydroxycyclobutyl)methoxy]methyl}-4-(trifluoromethyl)-3H-isoindol-1-one] | ≥ 6.70 | 6.00 to 6.70 | > 6.70
CCNc1cc(-c2ccc(C#N)cc2-c2nncn2C)cc(N2Cc3c(cc(COCC4(O)CCC4)cc3C(F)(F)F)C2=O)n1 [AEZ-1, 4-[2-(ethylamino)-6-(6-{[(1-hydroxycyclobutyl)methoxy]methyl}-1-oxo-4-(trifluoromethyl)-3H-isoindol-2-yl)pyridin-4-yl]-3-(4-methyl-1,2,4-triazol-3-yl) benzonitrile] | ≥ 6.70 | 6.00 to 6.70 | > 6.70
Cn1cnnc1-c1cc(F)ccc1-c1cc(C2CC2)nc(N2Cc3ccc(CNCC(C)(C)O)cc3C2=O)c1 [AHG-2, 2-{6-Cyclopropyl-4-[4-fluoro-2-(4-methyl-1,2,4-triazol-3-yl)phenyl]pyridin-2-yl}-6-{[(2-hydroxy-2-methylpropyl)amino]methyl}-3H-isoindol-1-one] | ≥ 6.70 | > 6.70 | > 6.70
CCNc1cc(-c2ccc(F)cc2-c2nncn2C)cc(N2Cc3c(cc(COCC4(F)CCC4)cc3C(F)(F)F)C2=O)n1 [AGB-1, 2-[6-(Ethylamino)-4-[4-fluoro-2-(4-methyl-1,2,4-triazol-3-yl)phenyl]pyridin-2-yl]-6-{1[(1-fluorocyclobutyl)methoxy]methyl}-4-(trifluoromethyl)-3H-isoindol-1-one] | ≥ 6.70 | 5.00 to 6.00 | > 6.70
Cn1cnnc1-c1cc(F)ccc1-c1cc(C2CC2)nc(N2Cc3ccc(COCC4(N)CCC4)cc3C2=O)c1 [AGI-3, 6-{1[(1-Aminocyclobutyl)methoxy]methyl}-2-{6-cyclopropyl-4-[4-fluoro-2-(4-methyl-1,2,4-triazol-3-yl)phenyl]pyridin-2-yl}-3H-isoindol-1-one] | ≥ 6.70 | > 6.70 | > 6.70
CCNc1cc(-c2ccc(C#N)cc2-c2nncn2C)cc(N2Cc3c(cc([C@H](O)CN(C)C)cc3C(F)(F)F)C2=O)n1 (single isomer, unassigned) [AGL-1] | ≥ 6.70 | 6.00 to 6.70 | > 6.70
Cn1cnnc1-c1cc(C#N)ccc1-c1cc(C2CC2)nc(N2Cc3c(cc(CO)cc3C(F)(F)F)C2=O)c1 [AES-1, 4-(2-Cyclopropyl-6-(6-(hydroxymethyl)-1-oxo-4-(trifluoromethyl)isoindolin-2-yl)pyridin-4-yl)-3-(4-methyl-4H-1,2,4-triazol-3-yl)benzonitrile] | ≥ 6.70 | 6.00 to 6.70 | > 6.70
Cn1cnnc1-c1cnn(C)c1-c1cccc(N2Cc3c(cc(CN[C@@H]4CCC[C@@H]4O)cc3C(F)(F)F)C2=O)c1 [ADO-2, 6-({[(1R,2S)-2-Hydroxycyclopentyl]amino}methyl)-2-{3-[2-methyl-4-(4-methyl-1,2,4-triazol-3-yl)pyrazol-3-yl]phenyl}-4-(trifluoromethyl)-3H-isoindol-1-one] | ≥ 6.70 | > 6.70 | > 6.70
CCNc1cc(-c2ccc(C#N)cc2-c2nncn2C)cc(N2Cc3c(cc(C(O)CN(C)C)cc3C(F)(F)F)C2=O)n1 (stereo not drawn) [AFR-7, 4-(2-{6-[2-(Dimethylamino)-1-hydroxyethyl]-1-oxo-4-(trifluoromethyl)-3H-isoindol-2-yl}-6-(ethylamino)pyridin-4-yl)-3-(4-methyl-1,2,4-triazol-3-yl) benzonitrile] | ≥ 6.70 | > 6.70 | > 6.70
Cn1cnnc1-c1cnn(C)c1-c1cc(C2CC2)nc(N2Cc3ccc(CNCC4(O)CCCC4)cc3C2=O)c1 [AFQ-3, 2-{6-Cyclopropyl-4-[2-methyl-4-(4-methyl-1,2,4-triazol-3-yl)pyrazol-3-yl]pyridin-2-yl}-6-({[(1-hydroxycyclopentyl)methyl]amino}methyl)-3H-isoindol-1-one] | ≥ 6.70 | > 6.70 | > 6.70
CCNc1cc(-c2ccc(C#N)cc2-c2nncn2C)cc(N2Cc3c(cc(CNC4CCCC4=O)cc3C(F)(F)F)C2=O)n1 (stereo not drawn) [AGC-5, 4-[2-(Ethylamino)-6-(1-oxo-6-{[(2-oxocyclopentyl)amino]methyl}-4-(trifluoromethyl)-3H-isoindol-2-yl)pyridin-4-yl]-3-(4-methyl-1,2,4-triazol-3-yl)benzonitrile] | ≥ 6.70 | 6.00 to 6.70 | > 6.70
Cn1cnnc1-c1cnn(C)c1-c1cc(C2CC2)nc(N2Cc3ccc(CNCC4(O)CCC4)cc3C2=O)c1 [AFI-1, 2-{6-Cyclopropyl-4-[2-methyl-4-(4-methyl-1,2,4-triazol-3-yl)pyrazol-3-yl]pyridin-2-yl}-6-({[(1-hydroxycyclobutyl)methyl]amino}methyl)-3H-isoindol-1-one] | ≥ 6.70 | > 6.70 | > 6.70
Cn1cnnc1-c1cc(Cl)ccc1-c1cccc(N2Cc3ccc(CNCC4(O)CCC4)cc3C2=O)c1 [AGV-1, 2-[4′-Chloro-2′-(4-methyl-1,2,4-triazol-3-yl)-[1,1′-biphenyl]-3-yl]-6-({[(1-hydroxycyclobutyl)methyl]amino}methyl)-3H-isoindol-1-one] | ≥ 6.70 | > 6.70 | > 6.70
CCNc1cc(-c2c(-c3nncn3C)cnn2C)cc(N2Cc3c(cc(CNCC4(O)CCC4)cc3C(F)(F)F)C2=O)n1 [ADJ-1, 2-[6-(Ethylamino)-4-[2-methyl-4-(4-methyl-1,2,4-triazol-3-yl)pyrazol-3-yl]pyridin-2-yl]-6-({[(1-hydroxycyclobutyl)methyl]amino}methyl)-4-(trifluoromethyl)-3H-isoindol-1-one] | ≥ 6.70 | > 6.70 | > 6.70
Cn1cnnc1-c1cc(F)ccc1-c1cc(C2CC2)nc(N2Cc3c(cc(CNCC4(O)CCC4)cc3C(F)(F)F)C2=O)c1 [AEY-1, 2-{6-Cyclopropyl-4-[4-fluoro-2-(4-methyl-1,2,4-triazol-3-yl)phenyl]pyridin-2-yl}-6-({[(1-hydroxycyclobutyl)methyl]amino}methyl)-4-(trifluoromethyl)-3H-isoindol-1-one] | ≥ 6.70 | > 6.70 | > 6.70
CCNc1cc(-c2ccc(C#N)cc2-c2nncn2C)cc(N2Cc3c(cc(CN[C@@H]4CCC[C@@H]4O)cc3C(F)(F)F)C2=O)n1 [AEL-2, 4-[2-(Ethylamino)-6-[6-({[(1R,2S)-2-hydroxycyclopentyl]amino}methyl)-1-oxo-4-(trifluoromethyl)-3H-isoindol-2-yl]pyridin-4-yl]-3-(4-methyl-1,2,4-triazol-3-yl) benzonitrile] | ≥ 6.70 | > 6.70 | > 6.70
Cn1cnnc1-c1cc(C#N)ccc1-c1cc(C2CC2)nc(N2Cc3ccc(CN[C@@H]4CCC[C@@H]4O)cc3C2=O)c1 [AHC-1, 4-{2-cyclopropyl-6-[6-({[(1R,2S)-2-hydroxycyclopentyl]amino}methyl)-1-oxo-3H-isoindol-2-yl]pyridin-4-yl}-3-(4-methyl-1,2,4-triazol-3-yl)benzonitrile] | ≥ 6.70 | > 6.70 | > 6.70
CCNc1cc(-c2ccc(C#N)cc2-c2nncn2C)cc(N2Cc3c(cc(CN4CCC[C@H](C)C4)cc3C(F)(F)F)C2=O)n1 [ADT-2, 4-[2-(Ethylamino)-6-(6-{[(3S)-3-methylpiperidin-1-yl]methyl}-1-oxo-4-(trifluoromethyl)-3H-isoindol-2-yl)pyridin-4-yl]-3-(4-methyl-1,2,4-triazol-3-yl)benzonitrile] | ≥ 6.70 | > 6.70 | > 6.70
CCNc1cc(-c2ccc(C#N)cc2-c2nncn2C)cc(N2Cc3c(cc(COCC(C)(C)O)cc3C(F)(F)F)C2=O)n1 [AFE-1, 4-[2-(ethylamino)-6-{6-[(2-hydroxy-2-methylpropoxy)methyl]-1-oxo-4-(trifluoromethyl)-3H-isoindol-2-yl}pyridin-4-yl]-3-(4-methyl-1,2,4-triazol-3-yl)benzonitrile] | ≥ 6.70 | 6.00 to 6.70 | > 6.70
C=C(C)c1cc(-c2ccc(F)cc2-c2nncn2C)cc(N2Cc3ccc(CNCC4(O)CCC4)cc3C2=O)n1 [AFW-3, 2-{4-[4-Fluoro-2-(4-methyl-1,2,4-triazol-3-yl)phenyl]-6-(prop-1-en-2-yl)pyridin-2-yl}-6-({[(1-hydroxycyclobutyl)methyl]amino}methyl)-3H-isoindol-1-one] | ≥ 6.70 | > 6.70 | > 6.70
